Laboratory results: ChEMBL document CHEMBL3045927, “Synthesis of 4-methyl-1,2,3-thiadiazole derivatives via Ugi reaction and their biological activities” (2010)

Legend:
Type in all cases: functional
[1] = system: Tobacco mosaic virus; assay: In vitro antiviral activity against Tobacco mosaic virus (TMV) infected tobacco leaves at 100 ug/ml
[2] = system: Mycosphaerella arachidis; assay: Fungicidal activity against Mycosphaerella arachidis at 50 ug/ml by growth inhibition method; parameters: scale not given: the % may be the effect or the level left
[3] = system: Pyricularia grisea; assay: Fungicidal activity against Magnaporthe grisea at 50 ug/ml by growth inhibition method; parameters: scale not given: the % may be the effect or the level left
[4] = system: Botryosphaeria berengeriana; assay: Fungicidal activity against Botryosphaeria berengeriana at 50 ug/ml by growth inhibition method; parameters: scale not given: the % may be the effect or the level left
[5] = system: Phytophthora infestans; assay: Fungicidal activity against Phytophthora infestans at 50 ug/ml by growth inhibition method; parameters: scale not given: the % may be the effect or the level left
[6] = system: Thanatephorus cucumeris; assay: Fungicidal activity against Thanatephorus cucumeris at 50 ug/ml by growth inhibition method; parameters: scale not given: the % may be the effect or the level left
[7] = system: Colletotrichum lagenaria; assay: Fungicidal activity against Colletotrichum lagenaria at 50 ug/ml by growth inhibition method; parameters: scale not given: the % may be the effect or the level left
[8] = system: Fusarium graminearum; assay: Fungicidal activity against Fusarium graminearum at 50 ug/ml by growth inhibition method; parameters: scale not given: the % may be the effect or the level left
[9] = system: Tobacco mosaic virus; assay: In vitro antiviral activity against Tobacco mosaic virus (TMV) infected tobacco leaves at 500 ug/ml
[10] = system: Cercospora beticola; assay: Fungicidal activity against Cercospora beticola at 50 ug/ml by growth inhibition method; parameters: scale not given: the % may be the effect or the level left
[11] = system: Rhizoctonia solani; assay: Fungicidal activity against Rhizoctonia solani at 50 ug/ml by growth inhibition method; parameters: scale not given: the % may be the effect or the level left
[12] = system: Alternaria solani; assay: Fungicidal activity against Alternaria solani at 50 ug/ml by growth inhibition method; parameters: scale not given: the % may be the effect or the level left

For `Cc1ccc(N(C(=O)c2snnc2C)C(C(=O)NC2CCCCC2)c2ccccc2F)cc1F` (configuration not stated), the inhibition at 100 µg/mL [1] was 22%, the Activity [2] was 29% and the Activity [3] was 43%. For the same compound, the Activity [4] was 31%, the Activity [5] was 41% and the Activity [6] was 33%. For the same compound, the Activity [7] was 42%, the Activity [8] was 0% and the inhibition at 500 µg/mL [9] was 23%. The Activity [10] was 0%, the Activity [11] was 49% and the Activity [12] was 38%.
Work on `Cc1ccc(N(C(=O)c2snnc2C)C(C(=O)NC2CCCCC2)c2cccc(F)c2)cc1F` (configuration not stated) yielded an inhibition at 100 µg/mL [1] of 9%, an Activity [2] of 21% and an Activity [3] of 0%. For the same compound, the Activity [4] was 0%, the Activity [5] was 5% and the Activity [6] was 0%. For the same compound, the Activity [7] was 5%, the Activity [8] was 38% and the inhibition at 500 µg/mL [9] was 29%. It also gave an Activity [10] of 17%, an Activity [11] of 42% and an Activity [12] of 0%.
In the case of `Cc1ccc(N(C(=O)c2snnc2C)C(C(=O)NC2CCCCC2)c2ccc(F)cc2)cc1F` (configuration not stated), the inhibition at 100 µg/mL [1] is reported as 40%, the Activity [2] is reported as 43% and the Activity [3] is reported as 14%. It also gave an Activity [4] of 19%, an Activity [5] of 29% and an Activity [6] of 17%. For the same compound, the Activity [7] was 26%, the Activity [8] was 8% and the inhibition at 500 µg/mL [9] was 36%. It also gave an Activity [10] of 0%, an Activity [11] of 40% and an Activity [12] of 44%.
With `Cc1ccc(N(C(=O)c2snnc2C)C(C(=O)NC2CCCCC2)c2ccc(C(F)(F)F)cc2)cc1F` (configuration not stated) the inhibition at 100 µg/mL [1] was 10%, the Activity [2] was 57% and the Activity [3] was 14%. It also gave an Activity [4] of 0%, an Activity [5] of 0% and an Activity [6] of 6%. The Activity [7] was 5%, the Activity [8] was 24% and the inhibition at 500 µg/mL [9] was 25%. The Activity [10] was 50%, the Activity [11] was 35% and the Activity [12] was 0%.
Compound `Cc1ccc(N(C(=O)c2snnc2C)C(C(=O)NC2CCCCC2)c2ccccc2[N+](=O)[O-])cc1F` (configuration not stated) has an inhibition at 100 µg/mL [1] of 17%, an Activity [2] of 21% and an Activity [3] of 0%. The Activity [4] was 0%, the Activity [5] was 5% and the Activity [6] was 0%. For the same compound, the Activity [7] was 5%, the Activity [8] was 41% and the inhibition at 500 µg/mL [9] was 29%. The Activity [10] was 67%, the Activity [11] was 37% and the Activity [12] was 0%.
Work on `Cc1cccc(C(C(=O)NC2CCCCC2)N(C(=O)c2snnc2C)c2ccc(C)c(F)c2)c1` (configuration not stated) yielded an inhibition at 100 µg/mL [1] of 18%, an Activity [2] of 21% and an Activity [3] of 0%. For the same compound, the Activity [4] was 0%, the Activity [5] was 0% and the Activity [6] was 0%. For the same compound, the Activity [7] was 0%, the Activity [8] was 34% and the inhibition at 500 µg/mL [9] was 29%. The Activity [10] was 33%, the Activity [11] was 28% and the Activity [12] was 0%.
With `Cc1ccc(C(C(=O)NC2CCCCC2)N(C(=O)c2snnc2C)c2ccc(C)c(F)c2)cc1` (configuration not stated) the inhibition at 100 µg/mL [1] was 52%, the Activity [2] was 14% and the Activity [3] was 29%. The Activity [4] was 0%, the Activity [5] was 5% and the Activity [6] was 0%. For the same compound, the Activity [7] was 0%, the Activity [8] was 28% and the inhibition at 500 µg/mL [9] was 36%. The Activity [10] was 17%, the Activity [11] was 33% and the Activity [12] was 0%.
`Cc1ccc(N(C(=O)c2snnc2C)C(C(=O)NC2CCCCC2)c2ccccc2C(F)(F)F)cc1Cl` (configuration not stated) showed an inhibition at 100 µg/mL [1] of 18%, an Activity [2] of 29% and an Activity [3] of 43%. It also gave an Activity [4] of 46%, an Activity [5] of 41% and an Activity [6] of 33%. It also gave an Activity [7] of 53%, an Activity [8] of 12% and an inhibition at 500 µg/mL [9] of 38%. The Activity [10] was 0%, the Activity [11] was 60% and the Activity [12] was 38%.
`Cc1ccc(N(C(=O)c2snnc2C)C(C(=O)NC2CCCCC2)c2ccc(C(F)(F)F)cc2)cc1Cl` (configuration not stated) showed an inhibition at 100 µg/mL [1] of 11%, an Activity [2] of 57% and an Activity [3] of 14%. The Activity [4] was 19%, the Activity [5] was 29% and the Activity [6] was 22%. It also gave an Activity [7] of 16%, an Activity [8] of 19% and an inhibition at 500 µg/mL [9] of 34%. For the same compound, the Activity [10] was 0%, the Activity [11] was 37% and the Activity [12] was 31%.
Compound `Cc1ccc(N(C(=O)c2snnc2C)C(C(=O)NC2CCCCC2)c2cccc([N+](=O)[O-])c2)cc1Cl` (configuration not stated) has an inhibition at 100 µg/mL [1] of 11%, an Activity [2] of 57% and an Activity [3] of 0%. The Activity [4] was 19%, the Activity [5] was 41% and the Activity [6] was 20%. It also gave an Activity [7] of 26%, an Activity [8] of 12% and an inhibition at 500 µg/mL [9] of 9%. It also gave an Activity [10] of 0%, an Activity [11] of 40% and an Activity [12] of 38%.
In the case of `Cc1ccc(N(C(=O)c2snnc2C)C(C(=O)NC2CCCCC2)c2ccccc2C)cc1Cl` (configuration not stated), the inhibition at 100 µg/mL [1] is reported as 38%, the Activity [2] is reported as 14% and the Activity [3] is reported as 0%. The Activity [4] was 35%, the Activity [5] was 35% and the Activity [6] was 43%. The Activity [7] was 37%, the Activity [8] was 23% and the inhibition at 500 µg/mL [9] was 42%. It also gave an Activity [10] of 0%, an Activity [11] of 43% and an Activity [12] of 56%.
With `Cc1ccc(N(C(=O)c2snnc2C)C(C(=O)NC2CCCCC2)c2ccccc2Cl)cc1F` (configuration not stated) the inhibition at 100 µg/mL [1] was 21%, the Activity [2] was 29% and the Activity [3] was 14%. The Activity [4] was 31%, the Activity [5] was 47% and the Activity [6] was 22%. The Activity [7] was 26%, the Activity [8] was 23% and the inhibition at 500 µg/mL [9] was 23%. It also gave an Activity [10] of 0%, an Activity [11] of 37% and an Activity [12] of 19%.
`Cc1ccc(N(C(=O)c2snnc2C)C(C(=O)NC2CCCCC2)c2cccc(Cl)c2)cc1F` (configuration not stated) gave an inhibition at 100 µg/mL [1] of 15%, an Activity [2] of 14% and an Activity [3] of 29%. The Activity [4] was 8%, the Activity [5] was 29% and the Activity [6] was 28%. The Activity [7] was 16%, the Activity [8] was 27% and the inhibition at 500 µg/mL [9] was 39%. For the same compound, the Activity [10] was 13%, the Activity [11] was 34% and the Activity [12] was 25%.
`Cc1ccc(N(C(=O)c2snnc2C)C(C(=O)NC2CCCCC2)c2ccc(Cl)cc2)cc1F` (configuration not stated) showed an inhibition at 100 µg/mL [1] of 28%, an Activity [2] of 0% and an Activity [3] of 43%. The Activity [4] was 23%, the Activity [5] was 24% and the Activity [6] was 22%. For the same compound, the Activity [7] was 37%, the Activity [8] was 12% and the inhibition at 500 µg/mL [9] was 30%. It also gave an Activity [10] of 0%, an Activity [11] of 43% and an Activity [12] of 38%.
Compound `Cc1ccc(N(C(=O)c2snnc2C)C(C(=O)NC2CCCCC2)c2ccc(Cl)cc2)cc1Cl` (configuration not stated) has an inhibition at 100 µg/mL [1] of 38%, an Activity [2] of 29% and an Activity [3] of 29%. It also gave an Activity [4] of 27%, an Activity [5] of 41% and an Activity [6] of 50%. It also gave an Activity [7] of 32%, an Activity [8] of 35% and an inhibition at 500 µg/mL [9] of 29%. For the same compound, the Activity [10] was 0%, the Activity [11] was 40% and the Activity [12] was 38%.
Work on `Cc1ccc(N(C(=O)c2snnc2C)C(C(=O)NC2CCCCC2)c2ccccc2F)cc1Cl` (configuration not stated) yielded an inhibition at 100 µg/mL [1] of 18%, an Activity [2] of 43% and an Activity [3] of 14%. For the same compound, the Activity [4] was 30%, the Activity [5] was 35% and the Activity [6] was 33%. For the same compound, the Activity [7] was 47%, the Activity [8] was 46% and the inhibition at 500 µg/mL [9] was 24%. For the same compound, the Activity [10] was 16%, the Activity [11] was 49% and the Activity [12] was 38%.
